From patent US4189497A, “Method of treating arthritic disease” (American Cyanamid Company, priority 1978, dated 1980)

System: Adjuvant Arthritis in Rats
Experiment: Adjuvant induced arthritis in rats (Freund's adjuvant, right hind paw)
Source text: Adjuvant induced experimental polyarthritis is a specific systemic disease of the rat which shares interesting similarities with rheumatoid arthritis. Specifically, the histology of the two diseases bears a remarkable resemblance as shown by C. M. Pearson et al., Am. J. Pathol. 42, 73 (1963). E. M. Glenn, Am. J. Vet. Res. 27 (116) 339 (1966) has classified adjuvant induced polyarthritis as a crippling and permanent deformity resulting from diffuse connective tissue involvement around certain susceptible joints in the rat. Zahiri et al., Can. Med. Ass. J. 101, 269 (1969) have shown that the fusiform swelling of the distal joints is associated with edema, congestion and synovitis including pannus formation, all of which precede the ultimate destruction of bone and cartilage. Furthermore, Zahiri et al. indicate that the cartilage destruction in the joint is due to an invasive pannus which originates in the marginal synovium and extends across the articular surface to erode it. […] See S. Wong et al., J. Pharm. & Exptl. Ther. 185, 127 (1973) and G. R. Bobalick et al., Agents & Actions 4, 364 (1974).
Groups of three Royal Hart, Wistar strain rats weighing 200±10 grams each were injected intradermally in the right hind paw with Freund's adjuvant (dried human tubercle bacilli in a mineral oil vehicle) at a dose of 2 mg./kg. of body weight. Test compound was administered orally in a 1.5% starch vehicle at various doses once daily on days 0 through 13 post challenge. […] On the 14th and 21st day post challenge the diameter of the injected paw (primary lesion) was measured by micrometer caliper. The volume of inflamed paws were estimated from these measurements and the results are expressed as percent inhibition of swelling as compared to controls. At the same time, the other inflamed sites, such as ears, paws and tail (secondary lesions) were observed and each rat was graded as to degree of inflammation and swelling present. The grading is based on a scale of 0 to 24, where 0 represents a complete absence of induced arthritic nodules and 24 represents the maximum degree of inflammation. The mean grade for each treated group is calculated and the effects of each compound are expressed as percent inhibition of the control grade.

[1] = oral dose 50 mg./kg. once daily days 0-13
[2] = oral dose 100 mg./kg. once daily days 0-13
[3] = oral dose 200 mg./kg. once daily days 0-13
[4] = oral dose 18.8 mg./kg. once daily days 0-13
[5] = oral dose 37.5 mg./kg. once daily days 0-13
[6] = oral dose 75 mg./kg. once daily days 0-13
[7] = oral dose 150 mg./kg. once daily days 0-13
[8] = oral dose 0.25 mg./kg. once daily days 0-13
[9] = oral dose 0.5 mg./kg. once daily days 0-13
[10] = oral dose 1 mg./kg. once daily days 0-13
[11] = oral dose 2 mg./kg. once daily days 0-13
[12] = oral dose 400 mg./kg. once daily days 0-13

## N#CCC(=O)c1cccs1 [B-oxo-2-thiophenepropionitrile, β-oxo-2-thiophenepropionitrile]
Adjuvant arthritic rats, oral dosing, summary of Table I
  progression of the arthritis and associated joint deterioration: appears to suppress the progression of the arthritis and associated joint deterioration
[1]
  % Inhibition of Control Grade (secondary lesion) Day 14: 46%
  % Inhibition of Swelling (primary lesion) Day 14: 46%
  Mean Weight Gain Day 14: 56 grams
  % Inhibition of Control Grade (secondary lesion) Day 21: 0%
  % Inhibition of Swelling (primary lesion) Day 21: 18%
  Mean Weight Gain Day 21: 48 grams
Oral dose 50 mg./kg. once daily days 0-13, adjuvant arthritic rats
  Dead/Treated At 21 Days: 3/36
[2]
  % Inhibition of Control Grade (secondary lesion) Day 14: 58%
  % Inhibition of Swelling (primary lesion) Day 14: 58%
  Mean Weight Gain Day 14: 52 grams
  % Inhibition of Control Grade (secondary lesion) Day 21: 10%
  % Inhibition of Swelling (primary lesion) Day 21: 42%
  Mean Weight Gain Day 21: 69 grams
Oral dose 100 mg./kg. once daily days 0-13, adjuvant arthritic rats
  Dead/Treated At 21 Days: 3/18
[3]
  % Inhibition of Control Grade (secondary lesion) Day 14: 72%
  % Inhibition of Swelling (primary lesion) Day 14: 72%
  Mean Weight Gain Day 14: 34 grams
  % Inhibition of Control Grade (secondary lesion) Day 21: 32%
  % Inhibition of Swelling (primary lesion) Day 21: 29%
  Mean Weight Gain Day 21: 54 grams
Oral dose 200 mg./kg. once daily days 0-13, adjuvant arthritic rats
  Dead/Treated At 21 Days: 2/18

## CCCCC1C(=O)N(c2ccccc2)N(c2ccccc2)C1=O [Phenylbutazone]
[4]
  % Inhibition of Swelling (primary lesion) Day 14: 31%
  Mean Weight Gain Day 14: 50 grams
  % Inhibition of Swelling (primary lesion) Day 21: 7%
  Mean Weight Gain Day 21: 45 grams
[5]
  % Inhibition of Swelling (primary lesion) Day 14: 56%
  Mean Weight Gain Day 14: 53 grams
  % Inhibition of Swelling (primary lesion) Day 21: 14%
  Mean Weight Gain Day 21: 53 grams
[6]
  % Inhibition of Swelling (primary lesion) Day 14: 62%
  Mean Weight Gain Day 14: 51 grams
  % Inhibition of Swelling (primary lesion) Day 21: 28%
  Mean Weight Gain Day 21: 50 grams
[7]
  % Inhibition of Swelling (primary lesion) Day 14: 75%
  Mean Weight Gain Day 14: 40 grams
  % Inhibition of Swelling (primary lesion) Day 21: 44%
  Mean Weight Gain Day 21: 50 grams

## COc1ccc2c(c1)c(CC(=O)O)c(C)n2C(=O)c1ccc(Cl)cc1 [Indomethacin]
[8]
  % Inhibition of Swelling (primary lesion) Day 14: 30%
  Mean Weight Gain Day 14: 51 grams
  % Inhibition of Swelling (primary lesion) Day 21: 4%
  Mean Weight Gain Day 21: 57 grams
[9]
  % Inhibition of Swelling (primary lesion) Day 14: 40%
  Mean Weight Gain Day 14: 53 grams
  % Inhibition of Swelling (primary lesion) Day 21: 20%
  Mean Weight Gain Day 21: 51 grams
[10]
  % Inhibition of Swelling (primary lesion) Day 14: 46%
  Mean Weight Gain Day 14: 63 grams
  % Inhibition of Swelling (primary lesion) Day 21: 19%
  Mean Weight Gain Day 21: 65 grams
[11]
  % Inhibition of Swelling (primary lesion) Day 14: 51%
  Mean Weight Gain Day 14: 68 grams
  % Inhibition of Swelling (primary lesion) Day 21: 24%
  Mean Weight Gain Day 21: 68 grams

## CC(=O)Oc1ccccc1C(=O)O [Aspirin]
[1]
  % Inhibition of Swelling (primary lesion) Day 14: 23%
  Mean Weight Gain Day 14: 56 grams
  % Inhibition of Swelling (primary lesion) Day 21: 3%
  Mean Weight Gain Day 21: 44 grams
[2]
  % Inhibition of Swelling (primary lesion) Day 14: 36%
  Mean Weight Gain Day 14: 48 grams
  % Inhibition of Swelling (primary lesion) Day 21: 13%
  Mean Weight Gain Day 21: 53 grams
[3]
  % Inhibition of Swelling (primary lesion) Day 14: 48%
  Mean Weight Gain Day 14: 40 grams
  % Inhibition of Swelling (primary lesion) Day 21: 27%
  Mean Weight Gain Day 21: 44 grams
[12]
  % Inhibition of Swelling (primary lesion) Day 14: 73%
  Mean Weight Gain Day 14: 41 grams
  % Inhibition of Swelling (primary lesion) Day 21: 48%
  Mean Weight Gain Day 21: 55 grams
